Assay results as given in the supplement of paper PMC10307832.

Assays:
Assay in all cases: relative viability (nuclei count vs DMSO), 5 days (fraction); higher = more cells survive
SGI-1776 = compound: CN1CCC(CNc2ccc3ncc(-c4cccc(OC(F)(F)F)c4)n3n2)CC1 [SGI-1776]
Method in brief: (§1)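 Following overnight incubation at 37 °C, lung cancer cell lines in 1536-well plates were pinned with five library-drug doses (not always all listed) in √10 steps on vehicle-anchored plates. The cells then spent 5 days without medium change before a combined fix, permeabilisation and Hoechst stain, 4× imaging and MetaXpress nuclear counts. Viability is the treated-to-vehicle ratio of nuclei, taken as the median across plates. Only plates with control CV below 25% and at least one doubling passed.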

[1] = compound: C1COCCN1C2=NC(=NC3=C2OC4=C3C=CC=N4)C5=CC(=CC=C5)NC(=O)C6=CN=C(C=C6)N
Method in brief: as §1

Entinostat = compound: Nc1ccccc1NC(=O)c1ccc(CNC(=O)OCc2cccnc2)cc1 [Entinostat]
Method in brief: as §1

Cell Line	relative viability (SGI-1776; 0.08 µM)	relative viability (SGI-1776; 0.8 µM)	relative viability (SGI-1776; 2.53 µM)	relative viability (SGI-1776; 8 µM)	relative viability ([1]; 0.02 µM)	relative viability ([1]; 0.06325 µM)	relative viability ([1]; 0.2 µM)	relative viability ([1]; 0.6325 µM)	relative viability ([1]; 2 µM)	relative viability (Entinostat; 0.02 µM)	relative viability (Entinostat; 0.06325 µM)	relative viability (Entinostat; 0.2 µM)	relative viability (Entinostat; 0.6325 µM)	relative viability (Entinostat; 2 µM)
201T	1.01	0.991	0.964	0.891	0.963	0.994	0.985	1	0.897	1.04	1.04	1.03	0.712	0.624
A549	0.992	1.01	0.959	0.795	1.05	1.1	0.97	0.991	0.471	1.02	1.03	0.901	0.842	0.508
A-427	1.08	1.08	0.975	0.84	0.971	0.994	0.909	0.857	0.704	1.1	1.12	0.978	0.878	0.619
ABC-1	1.02	0.916	0.835	0.897	1.09	0.879	0.83	1.1	0.927	1.01	1.05	1.15	0.808	0.398
BEN	0.984	0.955	0.819	0.812	1.03	0.917	1.02	0.934	0.837	0.97	1.04	0.835	0.653	0.357
CAL-12T	1.06	1.14	0.913	0.996	0.937	1.05	0.972	1.02	0.788	1.04	1.05	1.2	0.982	0.691
COR-L23	1.06	1.07	1.05	0.883	0.981	1.2	1.18	1.09	0.681	1	1.02	0.904	0.555	0.227
COR-L 105	1.09	1.01	0.949	0.722	0.868	0.717	0.751	0.695	0.591	0.947	1.14	1.06	0.747	0.371
Calu-6	1.06	1.02	0.976	0.852	1.05	1.04	1.01	0.998	0.685	1.02	1.02	1.02	0.761	0.544
ChaGo-K-1	1.06	1.01	0.949	0.855	0.949	1.07	0.897	1.01	0.837	1.04	0.934	1.11	0.961	0.881
EBC-1	1.04	0.952	0.971	0.67	0.911	1.16	0.936	0.964	0.576	1.06	1.02	0.865	0.306	0.165
EKVX	1.12	1.1	0.989	0.895	1.02	1.07	0.963	1.01	0.825	1.02	1.11	0.894	0.686	0.444
EMC-BAC-2	1.05	1.06	0.973	0.87	1.05	0.972	0.912	0.92	0.885	1.18	0.965	0.91	0.598	0.398
EPLC-272H	1.05	1.1	1.29	0.766	0.907	0.987	0.889	0.715	0.717	0.985	0.91	0.883	0.406	0.296
H3255	1.07	1.04	1.04	0.829	0.944	0.956	0.945	0.951	0.8	0.98	0.915	0.764	0.535	0.369
HARA	1.02	1.13	1	0.75	1.06	0.834	1.02	0.976	0.908	0.955	1.06	1.18	0.805	0.488
HCC-15	1.04	1.1	0.989	0.833	1.03	1.09	0.971	0.966	0.75	0.939	0.962	0.899	0.457	0.333
HCC-44	1.02	0.957	0.93	0.962	0.986	0.919	0.97	1.07	0.959	0.99	0.858	0.773	0.414	0.275
HCC-78	1.09	1.04	0.975	0.866	0.935	1.06	0.966	0.892	0.832	0.991	1.09	0.65	0.467	0.343
HCC-366	0.957	1.02	0.989	1.02	1.03	1.07	1.05	1.04	0.738	1.03	1.09	0.943	0.515	0.154
HCC-827	1.08	1.09	1.13	0.968	1.03	1.07	1.07	1.1	0.941	1.01	0.986	0.954	0.657	0.535
HOP-62	1.09	0.956	1.05	0.998	0.974	1.15	1.09	0.961	0.762	1.05	0.974	0.97	0.633	0.356
IA-LM	0.999	1.02	0.97	0.87	0.895	0.924	0.716	0.847	0.442	0.975	1.01	1.08	0.887	0.651
LC-2-ad	0.984	1.05	1.09	0.815	0.965	1.06	0.937	0.932	0.788	1.02	0.972	0.942	0.48	0.315
LCLC-97TM1	1.01	1.03	1.11	1.01	1.03	0.99	0.994	1.1	0.905	1.1	1.11	1.02	0.732	0.702

Cell Line	relative viability (SGI-1776; 0.08 µM)	relative viability (SGI-1776; 0.8 µM)	relative viability (SGI-1776; 2.53 µM)	relative viability (SGI-1776; 8 µM)	relative viability ([1]; 0.02 µM)	relative viability ([1]; 0.06325 µM)	relative viability ([1]; 0.2 µM)	relative viability ([1]; 0.6325 µM)	relative viability ([1]; 2 µM)	relative viability (Entinostat; 0.02 µM)	relative viability (Entinostat; 0.06325 µM)	relative viability (Entinostat; 0.2 µM)	relative viability (Entinostat; 0.6325 µM)	relative viability (Entinostat; 2 µM)
LCLC-103H	1.02	0.998	0.964	0.924	0.913	1.06	1.07	0.978	0.815	1.03	1.06	0.942	0.721	0.454
LK-2	1.09	1.03	1.03	0.77	0.998	1.08	1.09	0.757	0.585	1.04	1.03	0.868	0.652	0.349
LOU-NH91	1.02	1.03	0.969	0.713	0.955	1.01	0.948	0.925	0.897	1.05	1.11	1	0.897	0.739
LU99A	0.948	1.03	0.964	0.861	0.966	0.956	0.859	0.777	0.564	0.918	0.93	0.871	0.69	0.603
LXF-289	1.01	1.05	1.05	0.959	1.06	1.03	1.07	0.995	0.8	1	0.978	0.952	0.711	0.63
NCI-H23	0.921	1.01	1.06	0.887	0.937	0.843	0.869	0.854	0.654	1.06	1.27	1.15	0.9	0.395
NCI-H322M	0.975	1.01	1.05	0.69	0.903	0.923	0.944	0.854	0.725	1.02	1.11	1.14	0.961	0.859
NCI-H358	0.986	0.957	0.897	0.512	0.864	1.09	0.871	0.832	0.625	1.09	1.17	0.934	0.641	0.255
NCI-H441	0.913	1.12	1.15	0.817	1.1	1.14	1.08	0.888	0.443	1.01	1.18	0.882	0.35	0.218
NCI-H460	1.01	0.994	0.988	0.947	1.05	1.09	0.974	1.03	0.477	1.02	0.986	0.842	0.307	0.0693
NCI-H520	0.998	1.18	1	0.832	0.857	1.12	1.05	0.921	0.659	1	1.07	0.934	0.9	0.792
NCI-H522	1.04	1.01	0.875	0.827	0.945	0.927	0.888	0.988	0.955	1.03	0.967	1.19	1.11	0.646
NCI-H596	0.943	1.11	0.869	0.731	0.993	1.11	0.944	0.948	0.832	1.03	0.937	0.975	0.854	0.588
NCI-H647	0.988	1.09	0.839	0.544	0.862	1.02	0.905	0.867	0.546	1.05	1.04	0.897	0.462	0.165
NCI-H650	0.935	0.955	0.997	0.677	0.958	0.875	0.918	0.952	0.849	1.15	1.02	0.939	0.941	0.308
NCI-H661	1.02	1.04	1.06	0.974	0.989	1.04	0.978	1	0.813	1	0.999	0.911	0.809	0.664
NCI-H727	0.976	1.02	1.01	0.852	0.973	1.1	0.878	0.9	1.02	0.892	0.895	0.887	0.614	0.545
NCI-H838	0.928	0.994	0.936	0.645	0.852	0.947	0.917	0.791	0.57	1.11	1.08	1.08	0.733	0.406
NCI-H1299	1.03	1.01	0.996	0.946	0.991	1.1	1.03	1.02	0.868	1.03	1	0.994	0.85	0.727
NCI-H1355	1.01	1.06	0.994	0.888	0.967	1.04	0.998	0.959	0.888	0.975	0.918	0.823	0.638	0.523
NCI-H1395	1.04	1.04	0.827	0.621	0.846	0.935	0.724	0.801	0.821	1.1	1.15	0.962	0.745	0.601
NCI-H1437	1.02	1.04	0.972	0.887	0.978	1	0.957	0.995	0.56	0.952	0.652	0.476	0.34	0.237
NCI-H1563	1	1.05	0.925	0.756	0.938	0.992	0.859	0.786	0.758	0.938	0.959	0.887	0.816	0.776
NCI-H1623	0.977	0.967	0.951	0.897	1.07	0.943	0.895	0.924	0.853	1	0.937	0.918	0.625	0.462
